Source: patent US6906072B1, “Piperazine compound and pharmaceutical composition containing the compound” (Eisai Co., Ltd., priority 2000, dated 2005)
Structures can show the parent of a compound that is named as a salt.

What was measured:
[1] = tested on: potential dependent calcium channel; assay: Measurement of potential dependent calcium channel activity using fluorescent dye (fura2) in cerebral cortex synaptosome stimulated with KCl; assay type: cell-based, rat
[2] = tested on: rat middle cerebral artery emphraxis model; assay: Shrinking effect of infarction nidus in rat middle cerebral artery emphraxis model; assay type: in vivo; details: for volume of the infarction nidus of cerebral cortex: average value±standard error, after 24 hours; for reduction of the volume of the infarction nidus of cerebral cortex: from 30 minutes after emphraxis, vs control group, measured after 24 hours
Source text: Shrinking Effect of Infarction nidus in rat Middle Cerebral Artery Emphraxis Model (I)
A calcium ion in the cell plays an important role in the expression of various cell functions. But when the calcium ion concentration in the cell rises excessively, cell affection is induced (refer to literatures 1) and 2), hereinafter, the same as this.). For example, neural cell affection induced by excitatory amino-acid occurring in the case of cerebral ischemia provokes excessive rise of the calcium ion concentration in the cell (3) and 4)). The maintenance mechanism of membrane potential fails by excitatory amino-acid which rose in the case of local cerebral ischemia (3)), the depolarization of membrane is induced (5)), and the influx of the calcium ion into the cell through the potential dependent calcium channel is increased (6) and 7)). […] The potential dependent calcium channels existing in the neural cell are classified in 6 kinds of sub-types based on the electro-physiological and pharmacological investigation (T, L, N, P, Q and R types) (9)). Among these, N, P and Q types play an important role in the liberation of glutamic acid from rat cerebral cortex synaptosome (10) and 11)).
The compound represented by the above formula (I) according to the present invention was dissolved in a physiological saline, and appropriately prepared so as to be in doses of 1.5, 5 and 15 mg/kg/h. The concentration of the specimen was calculated based on the average body weight of an animal. Further, the average body weight was calculated by measuring the body weight of all animals which are intended to be used for experiment. For example, in the case of 5 mg/kg/h, it was calculated as: concentration of specimen=5 mg×average body weight (kg)/administration volume (0.616 ml) per hour. • (2) Manufacture of nylon embolus
The embolus made from nylon stitch (Ethicon, Inc., Somerville, N.J., USA) of 4-0 monofilament was used for emphraxis of middle cerebral artery. As the nylon embolus, that prepared by previously rounding its tip with flame, fragmenting it in a length of 25 mm, and marking at a position of 17 mm from the tip with an oily felt pen was used. • (3) Implantation of catheter for intravenous administration
The implantation of catheter for intravenous administration (Atom Vein Catheter 3Fr, manufactured by ATOM MEDICAL Co., Ltd., Tokyo) was carried out under 70% laughing gas-2% halothane anaesthesia. Catheter which was filled up with a physiological saline solution was inserted from the femoral vein of left foot. • (4) Emphraxis of middle cerebral artery
The emphraxis of middle cerebral artery was carried out in accordance with the method of Longa et al (12)). The operation was carried out under 70% laughing gas-2% halothane anaesthesia just after implanting the catheter. A rat was laid in facing upward under the stereoscopic microscope for operation, the neck was cut open, and the portion where the whole carotid arteries of the right side are diverged to the external carotid artery and the internal carotid artery was confirmed. The external carotid artery was cut off at the periphery side, and the nylon embolus was inserted from the terminal of the external carotid artery which was cut off into the internal carotid artery. The embolus was inserted up to the position where the position of 17 mm from the tip of the embolus is duplicated with a branch point of the external carotid artery and the internal carotid artery, and was fixed.
The rat was caught and lifted with the cauda after 30 minutes from the emphraxis of middle cerebral artery, an indivisual which expresses clearly the one side paralysis of a fore-leg (the paralysis of a fore-leg of the opponent side which loaded infarct) was provided for experiment as an example in which middle cerebral artery was occluded and was able to make an ischemia condition. • (6) Administration of medium and specimen […]

[3] = tested on: formalin test using mouse; assay: Analgesic effect in formalin test using mouse; assay type: in vivo; details: licking time for 5 minutes
Protocol: Analgesic Effect (I) in Formalin Test Using Mouse
Therefore, the analgesic effect obtained in the case where the intravenous administration of the present compound was carried out was studied in the formalin test (3)) using a mouse.
Ddy mice (male, 4 to 7 weeks age) purchased from Japan SLC Co, were used for experiment. Preliminary feeding of 4 days or more was carried out for mice (breeding condition: a room temperature 23±1° C., air humidity 55±5%, lighting cycle of every 12 hours). The mice were accommodated by a group of approximately 20 in a cage made of polycarbonate for 20 mice in which floor cloth (White Flake, Charles River Co., Ltd., Tokyo) was spread, and were bred. At the morning of the day tested, they were moved to a laboratory. They were freely fed MF (Oriental Yeast Co., Tokyo) as a feed. Further, they drunk city water freely. […]
10 mg/kg of the present compound was intravenously administered via tail vein, 30 mg/kg of morphine was orally administered and 10 mg/kg of indomethacin was orally administered. […] Just after the administration of formalin, the licking time of an action in which a mouse licked his left hind leg was measured for 5 minutes, and it was made as an index of pain. […] Setting the licking time of the control as 100%, the suppression rate (%) of the present compound was calculated by the following calculation formula. […]

[4] = tested on: formalin test; details: administration in spinal cord, literature reports, result in words; cited from earlier work
[5] = tested on: rat local cerebral ischemia model; details: literature reports, result in words; cited from earlier work
[6] = tested on: T1, potential dependent calcium channel; details: 1 μM; cited from earlier work
T1 construct: other: 1 μM

Compound: COc1ccc(CCN(C)CCCC(C#N)(c2ccc(OC)c(OC)c2)C(C)C)cc1OC (centres unmarked) [Control, verapamil hydrochloride]
- IC50 [1]: > 16 µM

Compound: CC(C)C(C#N)(CCCN1CCN(CCOc2cccc(C#N)c2)CC1)c1ccc(C#N)s1 (centres unmarked) [Example 70]
- volume of the infarction nidus of cerebral cortex ([2]; 1.5 mg/kg/h intravenous): 128.9±12.5 mm^3
- reduction of the volume of the infarction nidus of cerebral cortex ([2]; 1.5 mg/kg/h intravenous): 4%
- volume of the infarction nidus of cerebral cortex ([2]; 5 mg/kg/h intravenous): 108.0±14.9 mm^3
- reduction of the volume of the infarction nidus of cerebral cortex ([2]; 5 mg/kg/h intravenous): 20%
- volume of the infarction nidus of cerebral cortex ([2]; 15 mg/kg/h intravenous): 75.7±11.2 mm^3
- reduction of the volume of the infarction nidus of cerebral cortex ([2]; 15 mg/kg/h intravenous): 44%

Compound: CC(C)C(C#N)(CCCN1CCN(CCOc2cccc(C#N)c2)CC1)c1cccs1 (centres unmarked) [Example 75]
- volume of the infarction nidus of cerebral cortex ([2]; 1.5 mg/kg/h intravenous): 119.9±12.6 mm^3
- reduction of the volume of the infarction nidus of cerebral cortex ([2]; 1.5 mg/kg/h intravenous): 26%
- volume of the infarction nidus of cerebral cortex ([2]; 5 mg/kg/h intravenous): 102.0±14.1 mm^3
- reduction of the volume of the infarction nidus of cerebral cortex ([2]; 5 mg/kg/h intravenous): 37%
- volume of the infarction nidus of cerebral cortex ([2]; 15 mg/kg/h intravenous): 83.7±21.3 mm^3
- reduction of the volume of the infarction nidus of cerebral cortex ([2]; 15 mg/kg/h intravenous): 49%

Compound: CC(C)N(CCN1CCN(CCCC(C#N)(c2cccs2)C(C)C)CC1)c1ccccn1 (centres unmarked) [Example 189, 1-[4-cyano-4-(2-thienyl)-5-methylhexyl]-4-[2-{N-isopropyl-N-(2-pyridyl)amino]ethyl}Piperazine]
- suppression rate of licking time ([3]; 10 mg/kg intravenously, formalin 5 minutes after administration): 59%

Compound: CSCC[C@@H]1NC(=O)[C@H](CC(C)C)NC(=O)[C@H](CCCNC(=N)N)NC(=O)[C@H](CO)NC(=O)[C@@H]2CSSC[C@@H]3NC(=O)[C@H](CO)NC(=O)CNC(=O)[C@H]([C@@H](C)O)NC(=O)[C@H](CSSC[C@H](N)C(=O)N[C@@H](CCCCN)C(=O)NCC(=O)N[C@@H](CCCCN)C(=O)NCC(=O)N[C@@H](C)C(=O)N[C@@H](CCCCN)C(=O)N2)NC(=O)[C@H](CSSC[C@@H](C(N)=O)NC(=O)[C@H](CCCCN)NC(=O)CNC(=O)[C@H](CO)NC(=O)[C@H](CCCNC(=N)N)NC3=O)NC(=O)[C@H](CC(=O)O)NC(=O)[C@H](Cc2ccc(O)cc2)NC1=O [SNX-111]
- analgesic action in the formalin test [4]: exhibits an analgesic action
- protection of neural cells in rat local cerebral ischemia model [5]: protected the liberation of glutamic acid from cerebral cortex and subsequent neural cell affection

Compound: CN1CC[C@]23c4c5ccc(O)c4O[C@H]2[C@@H](O)C=C[C@H]3[C@H]1C5 [morphine, reference compound]
- suppression rate of licking time ([3]; 30 mg/kg orally, formalin 30 minutes after administration): 54%

Compound: n-conotoxin GVIA
- inhibition against the Ca2+ influx [6]: 18%

Compound: w-Agatoxin-IVA
- inhibition against the Ca2+ influx [6]: 64%

Compound: ω-agatoxin IVA
- protection of neural cells in rat local cerebral ischemia model [5]: exhibited a protective action for neural cell
